Data from patent US20110237677A1, “Inhibitors” (The University of Nottingham, priority 2008, published 2011).
pEC50: −log10 of the molar value. One block for each compound: values may come before it.

How the values were obtained:
human myometrial tissue = assay: Isometric tension recording, oxytocin-induced contractions of myometrial strips; assay type: cell-based; settings: for pEC50: Homo sapiens, inhibition of contractions stimulated with 10^−10M oxytocin, pooled experiments, cumulative additions, tissue 24 hours after elective caesarean; for effect on oxytocin-induced contractions: dose-dependent, 10^−10M oxytocin; for oxytocin-induced contractions after removal of the inhibitor by washing: washing with physiological salt solution, re-stimulation with oxytocin
Text: (§1) Longitudinal myometrial strips were mounted in an organ bath and contractile activity recorded as a measure of tensile force as previously described (Chanrachakul, Broughton-Pipkin et al., Am J Obstet Gynecol 192(2): 458-63, 2005). Myometrial contractions were initially stimulated by addition of oxytocin, bradykinin or phenylephrine (Sigma-Aldrich; 10^−10 mol/L, 10^−8 mol/L, 10^−8 mol/L respectively). Once rhythmic contractions had been achieved cumulative additions of cystamine (Sigma-Aldrich; 10^−8 to 10^−2 mol/L), mono-dansylcadaverine (MDC) (Sigma-Aldrich; 10^−8 to 10^−4 mol/L), cysteamine (Sigma-Aldrich; 10^−9 to 10^−2 mol/L), putrescine (Sigma-Aldrich; 10^−8 to 10^−4 mol/L) were added at 25 minute intervals. Contractile activity was determine by activity integral measured from 20 minutes time periods for each drug addition and analysed along with time-matched control myometrial strips under the same conditions but with vehicle additions (physiological salt solution).

myometrial strips [1] = assay: Isometric tension recording, spontaneous contractions of myometrial strips; assay type: cell-based, human; settings: 2 g tension, organ bath; dose-dependent
Protocol: FIG. 9 Diagrammatic representations showing that spontaneous contractions in myometrial strips are inhibited by cystamine (n=4), cysteamine (n=3) and MDC (n=2) in a dose-dependent manner. Control strips are shown with unbroken line (n=2). Tissue is used 24 hours following elective caesarean section and contractions are allowed to spontaneously initiate under 2 g tension and in a temperature controlled and oxygenated organ bath.
as §1

myometrial strips [2] = assay: Isometric tension recording, phenylephrine-induced contractions of myometrial strips; assay type: cell-based, human; settings: phenylephrine 10^−8M; compared to control strips
Text: as §1

myometrial strips [3] = assay: Isometric tension recording, bradykinin-induced contractions of myometrial strips; assay type: cell-based, human; settings: bradykinin 10^−8M; compared to control strips
Text: as §1

[4] = tested on: Myometrial smooth muscle cells; assay: Calcium mobilisation assay, oxytocin stimulated; assay type: cell-based, human; settings: for effect on maximal calcium mobilisation: incubation with 10^−6M inhibitor, oxytocin stimulated; for Emax, maximal calcium mobilisation on oxytocin stimulation: pre-incubation for 10 minutes with 10^−6M inhibitor, FlexStation fluorescence
Protocol: Myometrial smooth muscle cells were grown in DMEM (Dulbecco's Modified Eagle Medium; Sigma-Aldrich) supplemented with 10% fetal calf serum, L-glutamine and 0.2% pen/strep at 37° C. 5% CO2, following dissociation in 2 mg/ml collagenase (Sigma-Aldrich). Once confluent cells were plated on black-walled flat-bottomed sterile 96-well plates (Costar) at a concentration of 10^5 cells/ml and in the same media makeup and again grown to confluence. Once confluent, cells were incubated in 100 μl media/well containing 2.5 mM probenecid (Sigma-Aldrich), 2.3 μM Fluo-4 (invitrogen) and 0.023% pluronic acid (Invitrogen) for one hour in the dark at 37° C. 5% CO2. Cells were then washed twice with phosphate buffered saline and finally incubated in 100 μl/well PSS (Chanrachakul, Broughton-Pipkin et al., Am J Obstet Gynecol 192(2): 458-63, 2005) containing 2.5 mM probenecid with or without 10^−6 mol/L cystamine, MDC or cysteamine for 10 minutes. Fluorescent readout was then recorded on FlexStation ([…]) over a 200 second period with oxytocin addition at 15 seconds (10^−11 to 10^−5 mol/L) and ionomycin, to measure maximal potential response, at 150 seconds (10^−6 mol/L; Sigma-Aldrich).

pEC50 (human myometrial tissue): 4.66
Structure (SMILES): CN(C)c1cccc2c(S(=O)(=O)NCCCCCN)cccc12 [MDC, Monodansylcadaverine]
contractility, % of untreated control myometrium (human myometrial tissue; MDC 10^−4M, contractions stimulated with 10^−10M oxytocin): 17.8%±6.2 | effect on oxytocin-induced contractions (human myometrial tissue): inhibited | oxytocin-induced contractions after removal of the inhibitor by washing (human myometrial tissue): return to control levels | effect on spontaneous contractions (myometrial strips [1]): inhibited | effect on phenylephrine induced contractions (myometrial strips [2]): inhibited in a dose dependent manner | effect on bradykinin induced contractions (myometrial strips [3]): inhibited in a dose dependent manner | effect on maximal calcium mobilisation [4]: significantly reduced | Emax, maximal calcium mobilisation on oxytocin stimulation [4]: 81.45

pEC50 (human myometrial tissue): 2.88
Structure (SMILES): NCCSSCCN [cystamine]
effect on oxytocin-induced contractions (human myometrial tissue): inhibited | oxytocin-induced contractions after removal of the inhibitor by washing (human myometrial tissue): return to control levels | effect on spontaneous contractions (myometrial strips [1]): inhibited | effect on phenylephrine induced contractions (myometrial strips [2]): inhibited in a dose dependent manner | effect on bradykinin induced contractions (myometrial strips [3]): inhibited in a dose dependent manner | effect on maximal calcium mobilisation [4]: significantly reduced | Emax, maximal calcium mobilisation on oxytocin stimulation [4]: 87.67

pEC50 (human myometrial tissue): 5.79
Structure (SMILES): NCCS [cysteamine]
effect on oxytocin-induced contractions (human myometrial tissue): inhibited | oxytocin-induced contractions after removal of the inhibitor by washing (human myometrial tissue): began to return to control levels | effect on spontaneous contractions (myometrial strips [1]): inhibited | effect on maximal calcium mobilisation [4]: significantly reduced | Emax, maximal calcium mobilisation on oxytocin stimulation [4]: 98.95

pEC50 (human myometrial tissue): 4.25
Structure (SMILES): NCCCCN [putrescine]
effect on oxytocin-induced contractions (human myometrial tissue): inhibited
